Results from article PMC8119466, “A screen of FDA-approved drugs identifies inhibitors of protein tyrosine phosphatase 4A3 (PTP4A3 or PRL-3)” (Scientific Reports, 2021).
Counter-ions that a name gives are not always drawn. Like-named read-outs stand apart in the source and are kept apart here.

Assays:
Assay type in all cases: biochemical
recombinant PRL-1 = molecular target: T1, recombinant PRL-1 (Homo sapiens, UniProt Q93096); assay: In vitro phosphatase assay (DiFMUP hydrolysis), PRL-1; note: test concentration or dose not given here
T1 construct: 6xHis (N, cleaved yes); made in house; host or cells: E. coli One Shot BL21 Star
T1 sequence (Q93096 1-173): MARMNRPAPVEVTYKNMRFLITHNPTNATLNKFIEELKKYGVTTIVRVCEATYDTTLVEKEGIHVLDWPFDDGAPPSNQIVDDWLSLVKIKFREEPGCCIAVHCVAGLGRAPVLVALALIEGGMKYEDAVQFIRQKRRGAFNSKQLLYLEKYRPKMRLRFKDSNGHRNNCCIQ

recombinant PRL-2 = molecular target: T2, recombinant PRL-2 (Homo sapiens, UniProt Q12974); assay: In vitro phosphatase assay (DiFMUP hydrolysis), PRL-2;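 note: PRL-2 activity read as DiFMUP hydrolysis after 20 min at room temperature with drug, enzyme first pre-reduced at 4 °C for 20 min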
T2 construct: 6xHis (N, cleaved yes); made in house; host or cells: E. coli One Shot BL21 Star
T2 sequence (Q12974 1-167): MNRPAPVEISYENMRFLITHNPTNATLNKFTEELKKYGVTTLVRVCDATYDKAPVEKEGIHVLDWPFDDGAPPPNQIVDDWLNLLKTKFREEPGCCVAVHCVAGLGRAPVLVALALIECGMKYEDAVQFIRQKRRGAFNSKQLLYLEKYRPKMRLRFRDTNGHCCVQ

recombinant PRL-3 = molecular target: T3, recombinant PRL-3 (Homo sapiens, UniProt O75365); assay: In vitro phosphatase assay (DiFMUP hydrolysis), PRL-3; note: test concentration or dose not given here
T3 construct: 6xHis (N, cleaved yes); made in house; host or cells: E. coli One Shot BL21 Star

[1] = FDA-approved drug screen, compared to DMSO
[2] = FDA-approved drug screen, activity compared to DMSO

T3 sequence (O75365 whole entry): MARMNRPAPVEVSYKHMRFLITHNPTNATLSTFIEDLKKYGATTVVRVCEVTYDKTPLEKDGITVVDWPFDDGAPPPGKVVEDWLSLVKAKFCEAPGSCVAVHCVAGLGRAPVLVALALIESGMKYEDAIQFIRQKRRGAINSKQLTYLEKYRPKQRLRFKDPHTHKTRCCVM

SMILES	% Phosphatase Activity (compared to DMSO) PRL-1 (recombinant PRL-1; [1]) [%]	% Phosphatase Activity (compared to DMSO) PRL-2 (recombinant PRL-2; [1]) [%]	% Phosphatase Activity (compared to DMSO) PRL-3 (recombinant PRL-3; [1]) [%]	other results
[H]/N=C(/N)N/C(=N/[H])NCCc1ccccc1 [Phenformin HCl]	114	120	89	
CCCN[C@H]1CCc2nc(N)sc2C1 [Pramipexole]				% Phosphatase Activity (compared to DMSO) PRL-1 (recombinant PRL-1): 109%; % Phosphatase Activity (compared to DMSO) PRL-2 (recombinant PRL-2): 106%; % Phosphatase Activity (compared to DMSO) PRL-3 (recombinant PRL-3): 72%
CCCCOC(=O)c1ccc(N)cc1 [Butamben]	91	94	80	
[H]/N=C(/N)NS(=O)(=O)c1ccc(N)cc1 [Sulfaguanidine]				% Phosphatase Activity (compared to DMSO) PRL-1 (recombinant PRL-1; [2]): 97%; % Phosphatase Activity (compared to DMSO) PRL-2 (recombinant PRL-2; [2]): 90%; % Phosphatase Activity (compared to DMSO) PRL-3 (recombinant PRL-3; [2]): 77%
CCC(=O)O[C@]1(C(=O)CCl)[C@@H](C)C[C@H]2[C@@H]3CCC4=CC(=O)C=C[C@]4(C)[C@@]3(F)[C@@H](O)C[C@@]21C [Clobetasol propionate]	92	88	78	
COc1ccc(Cl)cc1C(=O)NCCc1ccc(S(=O)(=O)NC(=O)NC2CCCCC2)cc1 [Glyburide]	104	100	77	
Clc1ccc(COC(Cn2ccnc2)c2ccc(Cl)cc2Cl)cc1 (stereo not drawn) [Econazole nitrate]	107	103	93	
Nc1nnc(-c2cccc(Cl)c2Cl)c(N)n1 [Lamotrigine]	121	110	83	
CCOC(=O)C1=C(C)NC(C)=C(C(=O)OC)C1c1cccc(Cl)c1Cl (stereo not drawn) [Felodipine]	161	227	132	
CCCC(CCC)C(=O)[O-].[Na+]				% Phosphatase Activity (compared to DMSO) PRL-1 (recombinant PRL-1; [2]): 86%; % Phosphatase Activity (compared to DMSO) PRL-2 (recombinant PRL-2; [2]): 75%; % Phosphatase Activity (compared to DMSO) PRL-3 (recombinant PRL-3; [2]): 77%
C[C@]1(O)CC[C@H]2[C@@H]3CCC4=CC(=O)CC[C@]4(C)[C@@]3(F)[C@@H](O)C[C@@]21C [Fluoxymesterone]				% Phosphatase Activity (compared to DMSO) PRL-1 (recombinant PRL-1): 90%; % Phosphatase Activity (compared to DMSO) PRL-2 (recombinant PRL-2): 102%; % Phosphatase Activity (compared to DMSO) PRL-3 (recombinant PRL-3): 76%
CCC(=O)O[C@]1(C(=O)CCl)[C@@H](C)C[C@H]2[C@@H]3C[C@H](F)C4=CC(=O)C=C[C@]4(C)[C@@]3(F)[C@@H](O)C[C@@]21C [Halobetasol Propionate]	88	88	77	
N#C/C(=C1/SC[C@@H](c2ccc(Cl)cc2Cl)S1)n1ccnc1 [Luliconazole]	98	90	83	
CCCC(C(=O)OCCN(CC)CC)(c1ccccc1)c1ccccc1 [Proadifen HCl]	94	106	105	
C[C@H](CCC(=O)O)[C@H]1CC[C@H]2[C@@H]3[C@H](O)C[C@@H]4C[C@H](O)CC[C@]4(C)[C@H]3CC[C@]12C [Chenodeoxycholic Acid]	87	102	115	
CN(C)c1ccc(C(=C2C=CC(=[N+](C)C)C=C2)c2ccc(N(C)C)cc2)cc1 [Crystal Violet]	79	86	85	
CC[C@@H](CO)NCCN[C@@H](CC)CO [Ethambutol HCl]	99	111	93	
COC(=O)C1=CCCN(C)C1 [Arecoline]	98	131	84	
CC(=O)NS(=O)(=O)c1ccc(NC(=O)c2ccccc2C(=O)O)cc1 [Phthalylsulfacetamide]	104	120	101	

SMILES	% Phosphatase Activity (compared to DMSO) PRL-1 (recombinant PRL-1; [1]) [%]	% Phosphatase Activity (compared to DMSO) PRL-2 (recombinant PRL-2; [1]) [%]	% Phosphatase Activity (compared to DMSO) PRL-3 (recombinant PRL-3; [1]) [%]	other results
CNCC(=O)c1ccc(O)c(O)c1.Cl [Adrenalone HCl]	91	91	72	
COc1c(N2C[C@@H]3CCCN[C@@H]3C2)c(F)cc2c(=O)c(C(=O)O)cn(C3CC3)c12 [Moxifloxacin HCl]	562	594	417	
O=C(OCc1ccccc1)c1ccccc1 [Benzyl benzoate]	83	75	77	
CC(O)C(=O)O.CN1CCN(c2ccc3nc(-c4c(N)c5c(F)cccc5[nH]c4=O)[nH]c3c2)CC1 [Dovitinib (TKI258) Lactate]	86	70	85	
Cc1nnc(SCC2=C(C(=O)O)N3C(=O)[C@@H](NC(=O)Cn4cnnn4)[C@H]3SC2)s1 [Cefazolin Sodium]	97	110	88	
OC[C@@H](O)[C@@H](O)[C@H](O)[C@@H](O)CO [Sorbitol]				% Phosphatase Activity (compared to DMSO) PRL-1 (recombinant PRL-1; [2]): 105%; % Phosphatase Activity (compared to DMSO) PRL-2 (recombinant PRL-2; [2]): 96%; % Phosphatase Activity (compared to DMSO) PRL-3 (recombinant PRL-3; [2]): 80%
CC(C(=O)O)c1ccc2c(c1)[nH]c1ccc(Cl)cc12 (stereo not drawn) [Carprofen]	95	94	71	
CC(=O)OCC(CCn1cnc2cnc(N)nc21)COC(C)=O [Famciclovir]	107	115	79	
CC/C(=C(\c1ccccc1)c1ccc(OCCN(C)C)cc1)c1ccccc1 [Tamoxifen Citrate]				% Phosphatase Activity (compared to DMSO) PRL-1 (recombinant PRL-1; [2]): 84%; % Phosphatase Activity (compared to DMSO) PRL-2 (recombinant PRL-2; [2]): 91%; % Phosphatase Activity (compared to DMSO) PRL-3 (recombinant PRL-3; [2]): 95%
CCCC(=O)Nc1ccc(OCC(O)CNC(C)C)c(C(C)=O)c1 (stereo not drawn) [Acebutolol HCl]	105	123	86	
Cc1onc(-c2c(Cl)cccc2Cl)c1C(=O)N[C@@H]1C(=O)N2[C@@H]1SC(C)(C)[C@@H]2C(=O)O [Dicloxacillin Sodium]	106	121	85	
CC[C@H](C)C(=O)O[C@H]1CCC=C2C=C[C@H](C)[C@H](CC[C@@H]3C[C@@H](O)CC(=O)O3)[C@H]21 [Mevastatin]	88	89	71	
CC[C@@H]1/C=C(\C)C[C@H](C)C[C@H](OC)[C@H]2O[C@@](O)(C(=O)C(=O)N3CCCC[C@H]3C(=O)O[C@H](/C(C)=C/[C@@H]3CC[C@H](Cl)[C@H](OC)C3)[C@H](C)[C@@H](O)CC1=O)[C@H](C)C[C@@H]2OC [Pimecrolimus]	87	73	101	
Cc1ccc(-n2nc(C(C)(C)C)cc2NC(=O)NCc2cc(F)ccc2Oc2ccc3c(cnn3CCO)c2)cc1 [Pexmetinib (ARRY-614)]	106	103	117	
N[C@@H](CCC(=O)N[C@@H](CS)C(=O)NCC(=O)O)C(=O)O [Glutathione]				% Phosphatase Activity (compared to DMSO) PRL-1 (recombinant PRL-1): 93%; % Phosphatase Activity (compared to DMSO) PRL-2 (recombinant PRL-2): 87%; % Phosphatase Activity (compared to DMSO) PRL-3 (recombinant PRL-3): 112%
O=C(NC[C@H](O)CO)c1ccncc1Nc1ccc(I)cc1F [Pimasertib (AS-703026)]	99	92	84	
CNC(=O)[C@@H](NC(=O)[C@H](CC(C)C)[C@H](O)C(=O)NO)C(C)(C)C [Marimastat(BB-2516)]	85	77	91	
CC(C)NCC(O)COc1ccc(CCOCC2CC2)cc1.Cl (stereo not drawn) [Betaxolol hydrochloride (Betoptic)]				% Phosphatase Activity (compared to DMSO) PRL-1 (recombinant PRL-1): 84%; % Phosphatase Activity (compared to DMSO) PRL-2 (recombinant PRL-2): 99%; % Phosphatase Activity (compared to DMSO) PRL-3 (recombinant PRL-3): 97%
CC[C@H]1OC(=O)C[C@@H](O)[C@H](C)[C@@H](O[C@@H]2O[C@H](C)[C@@H](O)[C@H](N(C)C)[C@H]2O)[C@@H](CCN2C[C@H](C)C[C@H](C)C2)C[C@@H](C)C(=O)/C=C/C(C)=C/[C@@H]1CO[C@@H]1O[C@H](C)[C@@H](O)[C@@H](OC)[C@H]1OC [Tilmicosin]				% Phosphatase Activity (compared to DMSO) PRL-1 (recombinant PRL-1; [2]): 89%; % Phosphatase Activity (compared to DMSO) PRL-2 (recombinant PRL-2; [2]): 88%; % Phosphatase Activity (compared to DMSO) PRL-3 (recombinant PRL-3; [2]): 71%
